Measured values: ChEMBL document CHEMBL5120835, “Structure-activity relationships of 1,4-bis(arylsulfonamido)-benzene or naphthalene-N,N'-diacetic acids with varying C2-substituents as inhibitors of Keap1-Nrf2 protein-protein interaction” (Eur J Med Chem, 2022)
Active and inactive are the calls of the source. The calls are words filed in the database; no cut-off is given here.

How the values were obtained:
Keap1/Nrf2 [1] = molecular target: T1, Keap1/Nrf2 (Homo sapiens, UniProt Q14145); assay: Inhibition of recombinant human Keap1 Kelch domain (321 to 609 residues) expressed in Escherichia coli BL21 (DE3)pLysS cells/Nrf2 (unknown origin) protein-protein interaction using FITC-LDEETGEFL-NH2 as fluorescent substrate preincubated with compound for 30 mins followed by substrate addition and measured after 1 hr by fluorescence polarization assay relative to control
NCM460D [2] = assay: Upregulation of HMOX1 mRNA expression in human NCM460D cells at 1 to 100 uM measured after 24 hrs by qRT-PCR analysis; format: functional, cell-based; details: dose 1-100 µM
NCM460D [3] = assay: Upregulation of NQO1 mRNA expression in human NCM460D cells at 1 to 100 uM measured after 24 hrs by qRT-PCR analysis; format: functional, cell-based; details: dose 1-100 µM
[4] = Lipophilicity, logD of the compound at pH 6.5; format: physicochemical; details: buffer
[5] = Upregulation of NQO1 mRNA expression in human NCM460D cells assessed as fold change in gene expression at 100 uM measured after 24 hrs by qRT-PCR analysis relative to control; format: functional
[6] = Lipophilicity, logD of the compound at pH 7.4; format: physicochemical; details: buffer
Keap1/Nrf2 [7] = molecular target: T1, Keap1/Nrf2; assay: Inhibition of His-tagged Keap1 kelch domain/Nrf2 (unknown origin) protein-protein interaction using FITC-LDEETGEFL-NH2 peptide as substrate preincubated for 30 mins followed by substrate addition and measured after 1 hr by TR-FRET assay
NCM460D [8] = assay: Upregulation of GSTM3 mRNA expression in human NCM460D cells at 1 to 100 uM measured after 24 hrs by qRT-PCR analysis; format: functional, cell-based; details: dose 1-100 µM

T1 sequence (Q16236 whole entry, the tested form may be a part): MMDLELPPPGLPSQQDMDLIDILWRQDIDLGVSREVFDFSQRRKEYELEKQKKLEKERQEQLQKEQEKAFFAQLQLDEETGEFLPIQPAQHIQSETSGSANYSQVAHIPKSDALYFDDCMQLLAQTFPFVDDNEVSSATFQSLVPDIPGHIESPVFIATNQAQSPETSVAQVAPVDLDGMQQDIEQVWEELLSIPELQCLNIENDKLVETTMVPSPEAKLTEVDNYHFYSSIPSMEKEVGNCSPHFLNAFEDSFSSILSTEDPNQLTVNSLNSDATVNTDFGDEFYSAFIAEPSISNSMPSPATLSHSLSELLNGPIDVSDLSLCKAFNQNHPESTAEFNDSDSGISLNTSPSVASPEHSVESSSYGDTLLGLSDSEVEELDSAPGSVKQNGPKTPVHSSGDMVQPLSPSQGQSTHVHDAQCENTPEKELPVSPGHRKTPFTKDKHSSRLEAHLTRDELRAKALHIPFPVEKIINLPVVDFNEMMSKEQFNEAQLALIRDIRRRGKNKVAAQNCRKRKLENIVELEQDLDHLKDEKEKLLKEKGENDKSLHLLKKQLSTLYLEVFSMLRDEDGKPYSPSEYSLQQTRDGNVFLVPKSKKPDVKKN
T1 sequence (Q14145 whole entry, the tested form may be a part): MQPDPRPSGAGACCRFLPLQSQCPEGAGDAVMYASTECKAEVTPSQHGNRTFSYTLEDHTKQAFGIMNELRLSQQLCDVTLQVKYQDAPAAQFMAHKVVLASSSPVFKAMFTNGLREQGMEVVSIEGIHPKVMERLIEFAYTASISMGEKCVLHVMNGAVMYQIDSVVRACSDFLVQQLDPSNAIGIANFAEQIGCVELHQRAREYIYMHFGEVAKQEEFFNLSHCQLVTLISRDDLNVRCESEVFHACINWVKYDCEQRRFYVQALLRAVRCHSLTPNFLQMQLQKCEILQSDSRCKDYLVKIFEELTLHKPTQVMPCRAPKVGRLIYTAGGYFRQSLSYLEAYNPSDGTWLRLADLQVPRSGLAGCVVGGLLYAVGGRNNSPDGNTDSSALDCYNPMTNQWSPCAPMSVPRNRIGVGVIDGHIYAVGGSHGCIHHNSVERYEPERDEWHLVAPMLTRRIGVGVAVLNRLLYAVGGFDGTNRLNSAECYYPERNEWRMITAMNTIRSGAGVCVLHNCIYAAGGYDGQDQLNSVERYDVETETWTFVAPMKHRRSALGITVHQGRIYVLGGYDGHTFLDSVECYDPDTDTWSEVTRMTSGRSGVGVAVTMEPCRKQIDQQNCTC

Compound | IC50 (Keap1/Nrf2 [1]) [nM] | other results
COc1ccc(S(=O)(=O)N(CC(=O)O)c2ccc(N(CC(=O)O)S(=O)(=O)c3ccc(OC)cc3)c(COc3ccccc3)c2)cc1 | 2620 | 
COc1ccc(S(=O)(=O)N(CC(=O)O)c2ccc(N(CC(=O)O)S(=O)(=O)c3ccc(OC)cc3)c(OCc3ccc(Oc4ccccc4)cc3)c2)cc1 | 830 | 
O=C(O)CN(c1ccc(N(CC(=O)O)S(=O)(=O)c2ccc(-c3ccccc3)cc2)c(OCc2ccccc2)c1)S(=O)(=O)c1ccc(-c2ccccc2)cc1 | 750 | 
COc1ccc(S(=O)(=O)N(CC(=O)O)c2ccc(N(CC(=O)O)S(=O)(=O)c3ccc(OC)cc3)c(OCc3cccc4ccccc34)c2)cc1 | 790 | 
COc1ccc(COc2cc(N(CC(=O)O)S(=O)(=O)c3ccc(OC)cc3)ccc2N(CC(=O)O)S(=O)(=O)c2ccc(OC)cc2)cc1 | 770 | 
COc1ccc(S(=O)(=O)N(CC(=O)O)c2ccc(N(CC(=O)O)S(=O)(=O)c3ccc(OC)cc3)c(OCc3ccc(F)cc3)c2)cc1 | 910 | 
COc1ccc(S(=O)(=O)N(CC(=O)O)c2ccc(N(CC(=O)O)S(=O)(=O)c3ccc(OC)cc3)c(-c3ccccc3)c2)cc1 | 3470 | 
Cc1cc(C)c(S(=O)(=O)N(CC(=O)O)c2ccc(N(CC(=O)O)S(=O)(=O)c3c(C)cc(C)cc3C)c(OCc3ccc(F)cc3)c2)c(C)c1 | 3730 | 
Cc1ccc(S(=O)(=O)N(CC(=O)O)c2ccc(N(CC(=O)O)S(=O)(=O)c3ccc(C)cc3)c(OCc3ccc(-c4ccccc4)cc3)c2)cc1 | 440 | 
Cc1ccc(S(=O)(=O)N(CC(=O)O)c2ccc(N(CC(=O)O)S(=O)(=O)c3ccc(C)cc3)c(OCc3ccccc3)c2)cc1 | 450 | 
COc1ccc(S(=O)(=O)N(CC(=O)O)c2ccc(N(CC(=O)O)S(=O)(=O)c3ccc(OC)cc3)c(OCc3ccc(-c4ccccc4)cc3)c2)cc1 | 390 | 
Cc1ccc(S(=O)(=O)N(CC(=O)O)c2cc(OCc3ccc(F)cc3)c(N(CC(=O)O)S(=O)(=O)c3ccc(C)cc3)c3ccccc23)cc1 | 65 | Activity (NCM460D [2]): Active; Activity (NCM460D [3]): Active; logD [4]: 1.94; fold change (FC) [5]: 15; logD ([6]; read-out: logD): 0.33; IC50 (Keap1/Nrf2 [7]): 14.2 nM; Activity (NCM460D [8]): Active
Cc1ccc(S(=O)(=O)N(CC(=O)O)c2ccc(N(CC(=O)O)S(=O)(=O)c3ccc(C)cc3)c(OCc3ccc4ccccc4c3)c2)cc1 | 380 | 
COc1ccc(S(=O)(=O)N(CC(=O)O)c2ccc(N(CC(=O)O)S(=O)(=O)c3ccc(OC)cc3)c(N(C)Cc3ccccc3)c2)cc1 | 6170 | 
COc1ccc(S(=O)(=O)N(CC(=O)O)c2ccc(N(CC(=O)O)S(=O)(=O)c3ccc(OC)cc3)c(Oc3ccc(-c4ccccc4)cc3)c2)cc1 | 1190 | 
COc1ccc(S(=O)(=O)N(CC(=O)O)c2ccc(N(CC(=O)O)S(=O)(=O)c3ccc(OC)cc3)c3ccccc23)cc1 |  | logD [4]: -1.38; logD [6]: -2.93
Cc1ccc(S(=O)(=O)N(Cc2nnn[nH]2)c2ccc(N(Cc3nnn[nH]3)S(=O)(=O)c3ccc(C)cc3)c(OCc3ccc(F)cc3)c2)cc1 | 3920 | 
COc1ccc(S(=O)(=O)N(CC(=O)O)c2ccc(N(CC(=O)O)S(=O)(=O)c3ccc(OC)cc3)c(Oc3ccc4ccccc4c3)c2)cc1 | 890 | 

Further lines, with some results ahead:

IC50 (Keap1/Nrf2 [1]) [nM] | Compound | other results
1270 | Cc1ccc(S(=O)(=O)N(c2ccc(N([C@@H](C)C(=O)O)S(=O)(=O)c3ccc(C)cc3)c(OCc3ccc(F)cc3)c2)[C@@H](C)C(=O)O)cc1 | 
2410 | O=C(O)CN(c1ccc(N(CC(=O)O)S(=O)(=O)c2ccc(F)cc2)c(OCc2ccccc2)c1)S(=O)(=O)c1ccc(F)cc1 | 
1000 | Cc1cccc(S(=O)(=O)N(CC(=O)O)c2ccc(N(CC(=O)O)S(=O)(=O)c3cccc(C)c3)c(OCc3ccccc3)c2)c1 | 
480 | COc1ccc(S(=O)(=O)N(CC(=O)O)c2ccc(N(CC(=O)O)S(=O)(=O)c3ccc(OC)cc3)c(OCc3ccc4ccccc4c3)c2)cc1 | 
760 | COc1ccc(S(=O)(=O)N(CC(=O)O)c2ccc(N(CC(=O)O)S(=O)(=O)c3ccc(OC)cc3)c(OCc3cccnc3)c2)cc1 | 
450 | Cc1ccc(S(=O)(=O)N(CC(=O)O)c2ccc(N(CC(=O)O)S(=O)(=O)c3ccc(C)cc3)c(OCc3ccc(F)cc3)c2)cc1 | 
1020 | COc1ccc(S(=O)(=O)N(CC(=O)O)c2ccc(N(CC(=O)O)S(=O)(=O)c3ccc(OC)cc3)c(OCCc3ccccc3)c2)cc1 | 
1760 | O=C(O)CN(c1ccc(N(CC(=O)O)S(=O)(=O)c2ccc(C(F)(F)F)cc2)c(OCc2ccccc2)c1)S(=O)(=O)c1ccc(C(F)(F)F)cc1 | 
590 | O=C(O)CN(c1ccc(N(CC(=O)O)S(=O)(=O)c2ccc(Br)cc2)c(OCc2ccccc2)c1)S(=O)(=O)c1ccc(Br)cc1 | 
620 | COc1ccc(S(=O)(=O)N(CC(=O)O)c2ccc(N(CC(=O)O)S(=O)(=O)c3ccc(OC)cc3)c(OCc3ccc(C)cc3)c2)cc1 | 
950 | COc1ccc(S(=O)(=O)N(CC(=O)O)c2ccc(N(CC(=O)O)S(=O)(=O)c3ccc(OC)cc3)c(OCCCc3ccccc3)c2)cc1 | 
